In test [1] the test system is DNA duplex 5′-CCC GGG TTT CCC-3′ / 3′-GGG CCC AAT GGG-5′ containing a T-T pair. The test can be described thus: FIRMS binding force of the T-Hg-T system (DNA duplex with T-T pair). The procedure: (§1) Some embodiments of the method of using a differential binding force to quantify the efficiency of a drug molecule to a receptor comprises a process wherein one strand of the DNA duplex is immobilized on a surface, while the other is labeled with a magnetic particle. The binding forces of the DNA duplex are measured in the absence and presence of the drug molecule, denoted as F1 and F2, respectively. The differential binding force, F2-F1, characterizes the influence of the drug-DNA binding on the stability of the DNA. The binding forces are obtained using the FIRMS technique, depicted in FIG. 1.
Magnetic particles M280 were used to label one strand of the DNA duplexes as previously characterized.^16] After initial magnetization by a permanent magnet, the magnetic signal of the particles were detected by an atomic magnetometer, with a sensitivity of 200 fT/(Hz)^1/2. Sample wells (4×2×1 mm^3) with a biotin-coated bottom surface were used to immobilize the other strand of the DNA duplexes. Mechanical forces were applied using a centrifuge (Eppendorf 5417R).
The sample well, with dimensions of 4×2×1 mm^3 (L×W×D), was coated with biotin on the bottom surface. An aqueous solution of 0.625 mg/mL streptavidin was loaded into the sample well and incubated for 1 hr. Then the sample well was rinsed three times with a buffer solution as described below. […]

In test [2] the test system is DNA duplex 5′-CGCGAAAAACGCG-3′. The test can be described thus: FIRMS binding force of groove-binding drugs with DNA. To be noted: for binding force of DNA with drug: DNA alone 59 pN. The procedure:
as §1
The method of differential binding force can also be used to quantify a different binding mode of DNA-drug interactions. We chose two groove-binding drugs, netropsin and berenil. The groove-binding interaction is different from the intercalation interaction of daunomycin and THP. Shown in FIG. 6 are the binding forces of DNA alone, DNA with netropsin, and DNA with berenil, with values of 59, 63, and 73 pN, respectively. The DNA sequence was 5′-CGCGAAAAACGCG-3′ (SEQ. 5). The binding forces yield differential binding force of 4 pN for netropsin and 14 pN for berenil.

Test [3] deals with DNA1 (5′-CCC AAT CGA CCC-3′ with complementary strand 5′-GGG TCG ATT GGG-3′). Nature of the test: FIRMS binding force of drug with DNA1. Here is the method: as §1
(§2) Magnetic particles M280 were used to label one strand of the DNA duplexes as previously characterized.^16] After initial magnetization by a permanent magnet, the magnetic signal of the particles were detected by an atomic magnetometer, with a sensitivity of 200 fT/(Hz)^1/2. Sample wells (4×2×1 mm^3) with a biotin-coated bottom surface were used to immobilize the other strand of the DNA duplexes. […]
(§3) DNA Intercalation is widely considered as its binding mode, although minor groove binding has also been discussed,^[24] however, the specificity has previously not been quantified by binding strength. […] As a control experiment the differential binding force of daunomycin with a different DNA duplex, DNA2, with sequence 5′-CCC GGG TTT CCC-3′ and its complementary strand was measured.

In test [4] the test system is DNA2 (5′-CCC GGG TTT CCC-3′ and its complementary strand). The test can be described thus: FIRMS binding force of drug with DNA2. The procedure:
as §1, §2, §3

Regarding `[Hg+2]` [Hg], the “binding force of the DNA duplex upon binding” value in test [1] (DNA alone 40 pN, HEPES buffer pH 7.6) is given as 54 pN. For the same molecule, the “differential binding force (F2-F1)” value in test [1] (increase over DNA alone) is 14 pN.
On to `CC(=O)NCC(=O)O.CC(=O)NCC(=O)O.N=C(N)c1ccc(N=NNc2ccc(C(=N)N)cc2)cc1` [berenil], for which, in test [2], the “differential binding force (F2-F1)” value is 14 pN and the “binding force of DNA with drug” value is 73 pN.
Take `COc1cccc2c1C(=O)c1c(O)c3c(c(O)c1C2=O)C[C@@](O)(C(C)=O)C[C@@H]3O[C@H]1C[C@H](N)[C@H](O)[C@H](C)O1` [daunomycin]: the “differential binding force (F2-F1)” value in test [3] is recorded as 12 pN; in test [4], “no significant force difference”. In addition, the “binding force of DNA1 with drug” value in test [3] (DNA alone 45 pN (daunomycin, TE buffer) or 44 pN (THP, BPES buffer)) is listed as 57 pN. The “binding force of DNA2 with drug” value in test [4] (DNA alone 51 pN) is recorded as 52 pN.
As for `Cn1cc(NC(=O)c2cc(NC(=O)CN=C(N)N)cn2C)cc1C(=O)NCCC(=N)N` [netropsin], in test [2], the “differential binding force (F2-F1)” value is given as 4 pN and the “binding force of DNA with drug” value is listed as 63 pN.
